The source of these data is patent US8133471B2, “CLK-peptide and SLK-peptide” (New York University, priority 2003, dated 2012).

The subject of data set [1] is Glioblastoma (GL261) cells. The data set is described as follows: GL261 glioblastoma cell adhesion to collagen type-IV. It is filed as cell-based, murine. The method, then:
FIG. 21 Effects of CLK-Peptide on Glioblastoma Cell Adhesion to Denatured Collagen Type-IV.
To assess the functional significance of the HUI77/CLK cryptic epitope, cell adhesion assays using a glioblastoma cell line were performed. Microtiter plates were coated with denatured collagen type-IV (10 μg/ml). Glioblastoma (GL261) cells were resuspended in adhesion buffer in the presence or absence of CLK-peptide or a non-specific control (CTW) peptide (50 μg/ml) and the […] were incubated in the coated wells for 30 minutes. Non-attached cells were removed by washing, and attached cells quantified by staining with crystal violet.

The subject of data set [2] is Human melanoma cells (M21). Briefly: M21 cell adhesion to denatured or native collagen type-IV or fibronectin (Example 9). Format: cell-based. The method, then:
Non-tissue culture treated 48-well plates were coated with denatured collagen type-IV at 10 μg/ml. […] Cell adhesion was quantified by measuring the O.D. of eluted dye at 600 nm. Data bars represent the mean O.D.±standard deviation from triplicate wells. Assays were completed 2 to 3 times with similar results.
Non-tissue culture treated 48-well plates were coated with native collagen type-IV or fibronectin at 10 μg/ml. Human melanoma cells (M21) were allowed to attach to the coated wells in the presence or absence of CLK-Peptide or control peptide CTW at 0-100 μg/ml. Cell adhesion was quantified by measuring the O.D. of eluted dye at 600 nm. Data bars represent the mean O.D.±standard deviation from triplicate wells. Assays were completed 2 to 3 times with similar results. A. Adhesion to native collagen type-IV. B. Adhesion to Fibronectin.
Adhesion assays were performed to study the effects of CLK-peptide on tumor cell adhesion in vitro. Microtiter wells were coated with either native collagen type-IV or the control ECM protein fibronectin. Malignant melanoma cells (M21) were allowed to bind to the coated substrates in the presence or absence of CLK peptide or a control peptide, CTW.

Data set [3] concerns bFGF-induced angiogenesis in chick chorioallantoic membrane (CAM). The data set is described as follows: bFGF-induced angiogenesis in the chick CAM model. It is filed as in vivo. The source says:
FIG. 3A, FIG. 3B, and FIG. 3C depict a chick chorioallantoic membrane (CAM) without bFGF-induced angiogenesis, a CAM following bFGF-induced angiogenesis, and a CAM treated with CLK-peptide after bFGF-induced angiogenesis, respectively.
FIG. 4 is a chart which illustrates quantification of CAM angiogenic blood vessels following bFGF-induced angiogenesis without subsequent CLK-peptide treatment and CAM angiogenic blood vessels following bFGF-induced angiogenesis with subsequent CLK-peptide treatment.
Angiogenesis was induced within the chorioallantoic membrane (CAM) of 10-day old chick embryos with bFGF. Twenty-four hours later, 8-10 of the embryos were treated with a single intravenous injection of CLK-peptide (100 ug/embryo). At the end of a 3-day incubation period, the CAM tissues were removed for analysis. […] (FIGS. 3 (a),(b),(c)) The single injection of CLK-peptide inhibited bFGF by greater than 95%. […] Eight to ten chick embryos were tested in each of the two groups, and the experiment was repeated three times for a total of 24-30 chick embryos tested.

Data set [4] deals with Human melanoma (M21) cells. Briefly: M21 cell adhesion, CLK-peptide combined with mAb HUIV26 (Example 10). Format: cell-based. The note with it: data not shown. The method, then: FIG. 10 Effect of mAb HUIV26 in Combination with CLK-Peptide on Adhesion of M21 Cells to Denatured Collagen Type IV. Microtiter wells were coated with denatured collagen type-IV. M21 cells were allowed to bind to the coated substrates in the presence of CLK-peptide, mAb HUIV26, or both.
The effects of CLK-peptide, mAb HUIV26, and the combination of both on tumor cell adhesion were examined in vitro. Non-tissue culture treated 48-well microtiter plates were coated overnight at 4° C. with either native or denatured collagen type-IV (5 μg/ml). The plates were then blocked with 1% BSA in PBS for 1 hour at 37° C. Human melanoma (M21) cells at 10^5 cells/well in adhesion buffer were allowed to attach to the coated wells in the presence of either CLK-peptide (100 μg/ml), or mAb HUIV26 (100 μg/ml), or both together (CLK-peptide 25 μg/ml, mAb HUIV26 100 μg/ml). The cells were washed 2× with PBS, stained with crystal violet and destained with 10% acetic acid. Cell adhesion was quantified by measuring the O.D. of eluted dye at 600 nm. Data bars represent the mean O.D.±standard deviation from triplicate wells.

The test system of data set [5] is denatured collagen type-IV. Briefly: 99Tc-CLK-Peptide competitive binding to denatured collagen type-IV (gamma counter). The note with it: collagen 10 μg/ml; 99Tc-CLK-peptide 10 μg/ml. The method, then:
FIG. 18 Inhibition of 99Tc-CLK-Peptide binding by unlabeled HUI77.
FIG. 19 Inhibition of Binding of Labeled CLK-Peptide to Denatured Collagen Type-IV by mAb HUI77. Denatured collagen type-IV (10 μg/ml) was coated on microtiter wells and binding of 99Tc-labeled CLK-Peptide in the presence or absence of unlabeled CLK-peptide or mAb HUI77 was measured. As shown in the figure, 99Tc-CLK-peptide (10 μg/ml, 50 μl/well) specifically binds to denatured collagen type-IV (first bar from left). […] 99Tc-CLK-peptide was also allowed to bind to denatured collagen type-IV in the presence or absence of Mab HUI77 (fourth and fifth bars from left). […] These findings provide further evidence that the CLK-peptide binds to a similar if not identical epitope recognized by Mab HUI77.
^99Tc-CLK-Peptide was used in competitive binding studies to further characterize the CLK epitope. To evaluate the ability of HUI77 to compete with binding to denatured type-IV collagen, type-IV collagen was denatured at 60° C. for 15 minutes at a concentration of […] in PBS. […] The supernatant, washes and collagen-coated wells were counted in a gamma counter (1 minute counts in duplicate).
In addition, denatured collagen type-IV (10 μg/ml) was coated on microtiter wells and binding of ^99Tc-labeled CLK-Peptide in the presence or absence of either unlabeled CLK-peptide or mAb HUI77 was measured using a gamma counter. […]

As for “H-CLKQNGGNFSLG-OH [CLK-peptide, NH2-C-L-K-Q-N-G-G-N-F-S-L-G-COOH]”, in data set [1] (50 μg/ml, 30 minutes), the “inhibition of glioblastoma cell adhesion to denatured collagen type-IV” value is 90%. The “effect on glioblastoma cell adhesion to native intact collagen type-IV” value in data set [1] (data not shown) is reported as “no effect”. In data set [2] (0-100 μg/ml), the “effect on M21 cell adhesion to fibronectin” value is reported as “Neither CLK-Peptide nor the control peptide had any effect” and the “effect on M21 cell adhesion to native triple helical collagen type-IV” value is “Neither CLK-Peptide nor the control peptide had any effect”. Moreover, the “maximal inhibition of M21 cell attachment to denatured collagen type-IV” value in data set [2] (at 100 μg/ml) is reported as “approximately 65%”. Moreover, the “adverse effects following injection” value in data set [3] (chick embryos, 100 ug/embryo intravenous) is reported as “No adverse effects”. For the same substance, the “number of branching vessels within the area of the filter disc” value in data set [3] (single intravenous injection 100 ug/embryo) is listed as “dramatic reduction”. The “inhibition of bFGF (induced angiogenesis)” value in data set [3] (single intravenous injection 100 ug/embryo, 3-day incubation) is recorded as “greater than 95%”. In data set [4], the “effect on M21 cell adhesion to native collagen type-IV” value is on record as “neither had any effect”. The “inhibition of 99Tc-CLK-peptide binding to denatured collagen type-IV” value in data set [5] was “dose-dependent inhibition”.
